According to ChEMBL document CHEMBL4651402, “Screening of ~5500 FDA-approved drugs and clinical candidates for anti-SARS-CoV-2 activity” (2021):

Tested on: SARS-CoV-2
Assay: microbe, parasite or virus in culture
Conditions: Severe acute respiratory syndrome coronavirus 2, Vero C1008, 48 h

Compound | IC50 | IC50 (read-out: pIC50 (converted))
CCCCOc1ccc(C(=O)CCN2CCCCC2)cc1 [DYCLONINE] | > 20 µM | > 20 µM
CC(=O)[C@H]1CC[C@H]2[C@@H]3C=CC4=CC(=O)CC[C@@]4(C)[C@@H]3CC[C@]12C [DYDROGESTERONE] | > 20 µM | > 20 µM
Cn1c(=O)c2c(ncn2CC(O)CO)n(C)c1=O (centres undefined) [DYPHYLLINE] | > 20 µM | > 20 µM
CCc1occc(=O)c1O [E637] | > 20 µM | > 20 µM
CN(C)CC/C=C1\c2ccccc2COc2ccccc21 [E-DOXEPIN] | > 20 µM | > 20 µM
CC(C)(C)c1ccc(C(=O)CCCN2CCC(OC(c3ccccc3)c3ccccc3)CC2)cc1 [EBASTINE] | > 20 µM | > 20 µM
O=c1c2ccccc2[se]n1-c1ccccc1 [EBSELEN] | > 20 µM | > 20 µM
CNC(=O)c1cccc(NCC(=O)NCCc2ccc(OC)c(OC)c2)c1 [ECABAPIDE] | > 20 µM | > 20 µM
Clc1ccc(COC(Cn2ccnc2)c2ccc(Cl)cc2Cl)cc1 (centres undefined) [ECONAZOLE] | > 20 µM | > 20 µM
CN1CCc2cc(Cl)c(O)cc2[C@H]2c3ccccc3CC[C@@H]21 [ECOPIPAM] | > 20 µM | > 20 µM
CC1=NN(c2ccccc2)C(=O)C1 [EDARAVONE] | > 20 µM | > 20 µM
C[C@@H]1CN(Cc2ncccn2)C[C@H]1c1nc2c(cnn2C2CCOCC2)c(=O)[nH]1 [EDELINONTRINE] | > 20 µM | > 20 µM
CC1(C)CC=C(c2nc(C3CC(C)(C)OC(C)(C)C3)ccc2NC(=O)c2nc(C#N)c[nH]2)CC1 [EDICOTINIB] | > 20 µM | > 20 µM
CCc1cn([C@H]2C[C@H](O)[C@@H](CO)O2)c(=O)[nH]c1=O [EDOXUDINE] | > 100 µM | > 100 µM
CC[N+](C)(C)c1cccc(O)c1 [EDROPHONIUM] | > 20 µM | > 20 µM
CCC1(C2=NCCN2)Cc2ccccc2O1 (centres undefined) [EFAROXAN] | > 20 µM | > 20 µM
NCCCC(N)(C(=O)O)C(F)F (centres undefined) [EFLORNITHINE] | > 20 µM | > 20 µM
CCOC(=O)COc1ccc2c(=O)cc(-c3ccccc3)oc2c1 [EFLOXATE] | > 20 µM | > 20 µM
CSc1ccc(C(=O)/C=C/c2cc(C)c(OC(C)(C)C(=O)O)c(C)c2)cc1 [ELAFIBRANOR] | > 20 µM | > 20 µM
O=C(O)C[C@H](NC(=O)[C@@H]1CCCN(C(=O)CCC2CCNCC2)C1)c1cccnc1 [ELAROFIBAN] | > 20 µM | > 20 µM
O=C(OC(C(F)(F)F)C(F)(F)F)N1CCN(Cc2ccc(C(F)(F)F)cc2N2CCCC2)CC1 [ELCUBRAGISTAT] | > 20 µM | > 20 µM
CN(NC(=O)CC(=O)NN(C)C(=S)c1ccccc1)C(=S)c1ccccc1 [ELESCLOMOL] | > 20 µM | > 20 µM
OC(CN1CCC(Cc2ccc(F)cc2)CC1)c1ccc(Cl)cc1 (centres undefined) [ELIPRODIL] | > 20 µM | > 20 µM
Cc1c2ccncc2c(C)c2c1[nH]c1ccccc12 [ELLIPTECINE] | > 20 µM | > 20 µM

Compound | IC50 | IC50 (read-out: pIC50 (converted))
CCCCC1(CCCC)CN(c2ccccc2)c2cc(SC)c(OCC(=O)N[C@@H](C(=O)NCC(=O)O)c3ccccc3)cc2S(=O)(=O)C1 [ELOBIXIBAT] | > 20 µM | > 20 µM
c1cc2c(c(N3CCNCC3)c1)OCCO2 [ELTOPRAZINE] | > 20 µM | > 20 µM
O=C(Nc1ccc(Cl)c(S(=O)(=O)N2CCNCC2)c1O)Nc1cccc(F)c1Cl [ELUBRIXIN] | > 20 µM | > 20 µM
CCN(CC)CC(OC(=O)c1ccccc1)c1ccccc1 (centres undefined) [ELUCAINE] | > 20 µM | > 20 µM
Nc1nc(=O)n([C@@H]2C=C[C@H](CO)O2)cc1F [ELVUCITABINE] | > 20 µM | > 20 µM
CCCCCCCCCCCC1=C(O)C(=O)C=C(O)C1=O [EMBELIN] | > 20 µM | > 20 µM
CCOCCn1c(N2CCCN(C)CC2)nc2ccccc21 [EMEDASTINE] | > 20 µM | > 20 µM
CC[C@H]1CN2CCc3cc(OC)c(OC)cc3[C@@H]2C[C@@H]1C[C@H]1NCCc2cc(OC)c(OC)cc21 [EMETINE] | > 20 µM | > 20 µM
CCOCn1c(Cc2ccccc2)c(C(C)C)c(=O)[nH]c1=O [EMIVIRINE] | > 20 µM | > 20 µM
Cc1cc(O)c2c(c1)C(=O)c1cc(O)cc(O)c1C2=O [EMODIN] | > 20 µM | > 20 µM
CCc1nc(C)ccc1O [EMOXYPINE] | > 20 µM | > 20 µM
OC[C@H]1O[C@@H](c2ccc(Cl)c(Cc3ccc(O[C@H]4CCOC4)cc3)c2)[C@H](O)[C@@H](O)[C@@H]1O [EMPAGLIFLOZIN] | > 20 µM | > 20 µM
Nc1nc(=O)n([C@@H]2CS[C@H](CO)O2)cc1F [EMTRICITABINE] | > 20 µM | > 20 µM
C[C@H](N[C@@H](CCc1ccccc1)C(=O)O)C(=O)N1CCC[C@H]1C(=O)O [ENALAPRILAT ANHYDROUS] | > 20 µM | > 20 µM
CC(C)(O)CNc1nc(Nc2ccnc(C(F)(F)F)c2)nc(-c2cccc(C(F)(F)F)n2)n1 [ENASIDENIB] | > 20 µM | > 20 µM
COc1ccc(C(=O)Nc2ccccc2CCC2CCCCN2C)cc1 (centres undefined) [ENCAINIDE] | > 20 µM | > 20 µM
COc1ccccc1N1CCN(CC(O)COc2cc(OC)c(OC)c(OC)c2)CC1 (centres undefined) [ENCIPRAZINE] | > 20 µM | > 20 µM
CCOC(=O)N(Cc1ccccc1)C1CC1 [ENCYPRATE] | > 20 µM | > 20 µM
O=C(O)c1ccccc1NCCc1ccccc1 [ENFENAMIC ACID] | > 20 µM | > 20 µM
C=CCOC(Cn1ccnc1)c1ccc(Cl)cc1Cl (centres undefined) [ENILCONAZOLE] | > 20 µM | > 20 µM
Cc1cc(Nc2cc(N3CCN(C)CC3)nc(/C=C/c3ccccc3)n2)n[nH]1 [ENMD-2076] | > 20 µM | > 20 µM
O=C(Nc1ccc(Cl)c(Cl)c1)C1=C(O)c2cc(Cl)ccc2S(=O)(=O)CC1 [ENOLICAM] | > 20 µM | > 20 µM
CCn1cc(C(=O)O)c(=O)c2cc(F)c(N3CCNCC3)nc21 [ENOXACIN] | > 20 µM | > 20 µM
CSc1ccc(C(=O)c2[nH]c(=O)[nH]c2C)cc1 [ENOXIMONE] | > 20 µM | > 20 µM

Compound | IC50 | IC50 (read-out: pIC50 (converted))
CCN1CCN(c2cc3c(cc2F)c(=O)c(C(=O)O)cn3C2CC2)CC1 [ENROFLOXACIN] | > 20 µM | > 20 µM
O=S(=O)(O)c1ccc2[nH]c(-c3ccccc3)nc2c1 [ENSULIZOLE] | > 20 µM | > 20 µM
CCN(CC)C(=O)/C(C#N)=C/c1cc(O)c(O)c([N+](=O)[O-])c1 [ENTACAPONE] | > 20 µM | > 20 µM
Nc1ccccc1NC(=O)c1ccc(CNC(=O)OCc2cccnc2)cc1 [ENTINOSTAT] | > 20 µM | > 20 µM
c1cn2cc(-c3ccc4cn[nH]c4c3)nc(Nc3ccc(N4CCOCC4)cc3)c2n1 [ENTOSPLETINIB] | > 20 µM | > 20 µM
CNC(=O)c1ccc(N2C(=S)N(c3ccc(C#N)c(C(F)(F)F)c3)C(=O)C2(C)C)cc1F [ENZALUTAMIDE] | > 20 µM | > 20 µM
Cn1cc(C2=C(c3cn(C4CCN(Cc5ccccn5)CC4)c4ccccc34)C(=O)NC2=O)c2ccccc21 [ENZASTAURIN] | > 20 µM | > 20 µM
NS(=O)(=O)NCCNc1nonc1/C(=N/O)Nc1ccc(F)c(Br)c1 [EPACADOSTAT] | > 20 µM | > 20 µM
CCc1ccc(C(=O)C(C)CN2CCCCC2)cc1 (centres undefined) [EPERISONE] | > 20 µM | > 20 µM
CN[C@@H](C)[C@H](O)c1ccccc1 [EPHEDRINE] | > 20 µM | > 20 µM
NC1=NCC2c3ccccc3Cc3ccccc3N12 (centres undefined) [EPINASTINE] | > 20 µM | > 20 µM
COc1cc(C)nc(-n2nc(C)cc2OC)n1 [EPIRIZOLE] | > 20 µM | > 20 µM
C[C@]12C[C@H]3S[C@H]3C[C@@H]1CC[C@@H]1[C@@H]2CC[C@]2(C)[C@@H](O)CC[C@@H]12 [EPITIOSTANOL] | > 20 µM | > 20 µM
CN(C)CCO/N=C(/C=C/c1ccc(O)cc1)c1ccccc1F [EPLIVANSERIN] | > 20 µM | > 20 µM
CC1(C)OC2(C)C(O)CC1CC2O (centres undefined) [EPOMEDIOL] | > 20 µM | > 20 µM
CCCCC[C@H](O)/C=C/[C@@H]1[C@H]2C/C(=C/CCCC(=O)O)O[C@H]2C[C@H]1O [EPOPROSTENOL] | > 20 µM | > 20 µM
C[C@]1(O)CC[C@H]2[C@@H]3CC[C@@]45O[C@]4(C)C(O)=C(C#N)C[C@]5(C)[C@H]3CC[C@@]21C [EPOSTANE] | > 20 µM | > 20 µM
C/C1=C/C[C@@H](/C(C)=C/c2csc(C)n2)OC(=O)C[C@H](O)C(C)(C)C(=O)[C@H](C)[C@@H](O)[C@@H](C)CCC1 [EPOTHILONE D] | > 20 µM | > 20 µM
O=C(NCCCN1CCOCC1)c1ccc(Cl)cc1 [EPROBEMIDE] | > 20 µM | > 20 µM
C[C@]12CC[C@H]3C(=CCc4cc(O)ccc43)[C@@H]1CCC2=O [EQUILIN] | > 20 µM | > 20 µM
CC(C)C[C@H]1C(=O)N2CCC[C@H]2[C@]2(O)O[C@](NC(=O)[C@@H]3C=C4c5cccc6[nH]cc(c56)C[C@H]4N(C)C3)(C(C)C)C(=O)N12 [ERGOCRYPTINE] | > 20 µM | > 20 µM
C[C@@H](CO)NC(=O)[C@@H]1C=C2c3cccc4[nH]cc(c34)C[C@H]2N(C)C1 [ERGONOVINE] | > 20 µM | > 20 µM
CN1C[C@H](C(=O)N[C@]2(C)O[C@@]3(O)[C@@H]4CCCN4C(=O)[C@H](Cc4ccccc4)N3C2=O)C=C2c3cccc4[nH]cc(c34)C[C@H]21 [ERGOTAMINE] | > 20 µM | > 20 µM
C#Cc1cccc(Nc2ncnc3cc(OCCOC)c(OCCOC)cc23)c1 [ERLOTINIB] | > 20 µM | > 20 µM
